Legend:
Rattus norvegicus [1] = test: Anti-inflammatory activity in Rattus norvegicus Wistar (rat) assessed as inhibition of carrageenan-induced paw edema at 75 mg/kg, po administered 30 min post carrageenan challenge measured at 5 hr relative to control; type: functional
Rattus norvegicus [2] = test: Anti-inflammatory activity in Rattus norvegicus Wistar (rat) assessed as inhibition of carrageenan-induced paw edema at 25 mg/kg, po administered 30 min post carrageenan challenge measured at 5 hr relative to control; type: functional
Rattus norvegicus [3] = test: Ulcerogenic activity in Rattus norvegicus Wistar (rat) assessed as length of lesion at 75 mg/kg, po after 6 hr (reference value: 0 mm); type: toxicity, organism-based; design: dose 75 mg/kg, route oral; conditions: in vivo
Rattus norvegicus [4] = test: Anti-inflammatory activity in Rattus norvegicus Wistar (rat) assessed as inhibition of carrageenan-induced paw edema at 5 mg/kg, po administered 30 min post carrageenan challenge measured at 5 hr relative to control; type: functional
Rattus norvegicus [5] = test: Anti-inflammatory activity in po dosed Rattus norvegicus Wistar (rat) assessed as inhibition of carrageenan-induced paw edema administered 30 min post carrageenan challenge measured at 5 hr; type: functional
Rattus norvegicus [6] = test: Ulcerogenic activity in Rattus norvegicus Wistar (rat) assessed as length of lesion at 25 mg/kg, po after 6 hr (reference value: 0 mm); type: toxicity, organism-based; design: dose 25 mg/kg, route oral; conditions: in vivo
Rattus norvegicus [7] = test: Ulcerogenic activity in Rattus norvegicus Wistar (rat) assessed as length of lesion at 5 mg/kg, po after 6 hr (reference value: 0 mm); type: toxicity, organism-based; design: dose 5 mg/kg, route oral; conditions: in vivo
Rattus norvegicus [8] = test: Anti-inflammatory activity in Rattus norvegicus Wistar (rat) assessed as inhibition of carrageenan-induced paw edema at 100 mg/kg, po administered 30 min post carrageenan challenge measured at 5 hr relative to control; type: functional
Rattus norvegicus [9] = test: Ulcerogenic activity in Rattus norvegicus Wistar (rat) assessed as length of lesion at 100 mg/kg, po after 6 hr (reference value: 0 mm); type: toxicity, organism-based; design: dose 100 mg/kg, route oral; conditions: in vivo
Rattus norvegicus [10] = test: Ulcerogenic activity in Rattus norvegicus Wistar (rat) assessed as length of lesion at 10 mg/kg, po after 6 hr (reference value: 0 mm); type: toxicity, organism-based; design: dose 10 mg/kg, route oral; conditions: in vivo
Rattus norvegicus [11] = test: Anti-inflammatory activity in Rattus norvegicus Wistar (rat) assessed as inhibition of carrageenan-induced paw edema at 30 mg/kg, po administered 30 min post carrageenan challenge measured at 5 hr relative to control; type: functional
Rattus norvegicus [12] = test: Ulcerogenic activity in Rattus norvegicus Wistar (rat) assessed as length of lesion at 30 mg/kg, po after 6 hr (reference value: 0 mm); type: toxicity, organism-based; design: dose 30 mg/kg, route oral; conditions: in vivo

Structure (SMILES)	inhibition in vivo at 75 mg/kg (Rattus norvegicus [1]) [%]	inhibition in vivo at 25 mg/kg (Rattus norvegicus [2]) [%]	Activity (Rattus norvegicus [3]) [mm]	inhibition in vivo at 5 mg/kg (Rattus norvegicus [4]) [%]	ED50 (Rattus norvegicus [5]) [mg/kg]	Activity (Rattus norvegicus [6]) [mm]	Activity (Rattus norvegicus [7]) [mm]	inhibition in vivo at 100 mg/kg (Rattus norvegicus [8]) [%]	Activity (Rattus norvegicus [9]) [mm]	Activity (Rattus norvegicus [10]) [mm]	inhibition in vivo at 30 mg/kg (Rattus norvegicus [11]) [%]	Activity (Rattus norvegicus [12]) [mm]
CC(=O)c1ccc(NS(C)(=O)=O)c(OC2CCCC2)c1	69.2	57.4	1	58.7	2.31	0	0					
CCCCCCCCOc1cc(C(C)=O)ccc1NS(C)(=O)=O	69.9	62.5	2	51.5	2.36	1	0					
CCOc1cc(C(C)=O)ccc1NS(C)(=O)=O	66.2	54.6	1	44	1.8	0	0					
CCCOc1cc(C(C)=O)ccc1NS(C)(=O)=O	67.2	62.1	1	56.6	2.25	1	0					
CC(=O)c1ccc(NS(C)(=O)=O)c(O)c1								15.9	1			
COc1ccc2c(c1)c(CC(=O)O)c(C)n2C(=O)c1ccc(Cl)cc1 [INDOMETHACIN]					2.2					19.4		
CS(=O)(=O)c1ccc(C2=C(c3ccccc3)C(=O)OC2)cc1 [ROFECOXIB]					2.61						82.8	2
